{"source": "patent US20190351012A1", "about": "“TARGETING OF INTERFERON-STIMULATED GENE EXPRESSION TO TREAT INTERFERONOPATHIES” (New York University, priority 2018, published 2019)", "key": {"[1]": {"test_system": "ISG54 promoter and G6TI control templates", "assay": "In vitro transcription run-off assay with nuclear extracts and recombinant ISGF3", "format": "biochemical, human", "details": "TSA included in run-off reaction, naked DNA templates", "from_the_text": "FIG. 2. […] (A) Nuclear extracts from HEK293T cells expressing activated recombinant ISGF3 (STAT1, STAT2, IRF9 and JAK1) or transfected with vector (Ctl) were programmed with G6TI-CAT (G6TI) or p107 (ISG54) templates. Radiolabeled RNA transcripts were resolved by polyacrylamide-urea gel electrophoresis. Arrow and arrowhead indicate position of the transcripts from G6TI-CAT and p107, respectively. (B) HeLa cells were either left untreated or treated with IFN-α in the absence or presence of TSA (TSA in vivo) before nuclei were isolated for run-on transcription. Where indicated, TSA was added to the elongation reaction in vitro (TSA in vitro). Specific signals from γ-actin, ISG15, ISG56, 6-16, 9-27, IRF9 and GBP transcription were quantified following filter hybridization and normalized to the signal for GAPDH, arbitrarily set to 100. Representative data from three independent experiments are shown. FS2 human diploid fibroblasts were starved for 72 h before being treated with IFN-α for 7.5 h in the absence or presence of TSA. Mononucleosomal DNA fraction was purified from MNase-digested nuclei and analyzed for nucleosome positions by PCR quantitation of protected fragments. All samples were quantified by real-time PCR, except the—53—+1 ISG54 fragment, which was quantified by gel electrophoresis (C). […]"}, "[2]": {"test_system": "H3K4me3 at ISG54, ISG56 and 6-16 promoters", "assay": "ChIP for H3K4me3 at ISG promoters in 2fTGH cells", "format": "cell-based, human", "details": "co-treatment with IFN-α", "description": "FIG. 3. […] (A) 2fTGH cells were either left untreated or treated with IFN-α in the absence or presence of TSA for the indicated time (min). ChIP assays were performed with antibodies against Pol II and recovered ISG56 promoter sequences were quantified by real-time PCR relative to input and represented as fold induction relative to untreated cells. (B) As in A, except that antibodies against phosphorylated Pol II at serine-5 in the CTD were used for immunoprecipitation, following 60 min IFN-α treatments. Recovered ISG54, ISG56 and ISG15 promoter sequences were quantified by real-time PCR relative to input and represented as fold induction relative to untreated cells. (C) As in A, except that cells were treated with IFN-α for 60 min and proximal, middle and distal fragments along the ISG54 gene (left panel) and ISG56 gene (right panel) were assayed. (D) As in A, except that antibodies against trimethylated lysine-4 on histone H3 were used. Promoter regions of ISG54, ISG56 and 6-16 genes were quantified by real-time PCR and reported as fold over the signal detected with a non-specific antibody.\nChromatin immunoprecipitation was performed as follows. […] Immunoprecipitated DNA sequences were recovered by alcohol precipitation and quantified by real-time PCR compared with input genomic DNA. […]"}}, "data": [{"smiles": "CC(/C=C/C(=O)NO)=C\\[C@@H](C)C(=O)c1ccc(N(C)C)cc1", "note": "[TSA, Trichostatin A]", "values": [{"measurement": "inhibition of basal and ISGF3-dependent transcription in vitro", "setting": "[1]", "result": "neither basal nor ISGF3-dependent transcription was inhibited"}, {"measurement": "level of H3K4me3 on ISG promoters", "setting": "[2]", "result": "neither IFN stimulation nor TSA co-treatment significantly affected"}]}]}
